Source: publication PMC12040169 (PLOS Biology, 2025)

Assay: in vitro
Details: human, hela cells, % viability

Row | SMILES | viability at 28.5 h, 10 µM
1 | Cc1cc(C)c(NC(=O)CSc2nnc(-c3cccnc3)s2)c([N+](=O)[O-])c1 [CBK268929] | 102%
2 | Cc1cc2cc(F)ccc2n1CCCN1CCN(c2ccncc2)CC1 [CBK039119G] | 116%
3 | COc1ccccc1-c1nn2c(Cn3cnc4ccccc43)nnc2s1 [CBK268218] | 93%
4 | CC(C)(C)OC(=O)N1CCN(c2cncc(OC3CSCc4ccccc43)n2)CC1 (centres unmarked) [CBK172354] | 105%
5 | O=C(CN1CCN(C2CCCC2)C(=O)C1)N1CCCc2ccccc21 [CBK282132] | 81.7%
6 | CC(C(=O)Nc1cccc2[nH]ccc12)c1ccc(Cl)cc1 (centres unmarked) [CBK159647] | 107%
7 | Cc1cc(CN2CCN(S(=O)(=O)c3ccc(C(F)(F)F)cc3Cl)CC2)cc(C)c1O [CBK063074] | 103%
8 | CC(=O)Nc1ccc(S(=O)(=O)N2CCN(C(=O)c3ccco3)CC2)cc1 [CBK068319] | 90.5%
9 | CC(C)(C)c1cc(C(=O)Nc2ccccn2)n(Cc2ccc(Cl)cc2Cl)n1 [CBK107361] | 89.6%
10 | C=C(C)Cn1c(SCC(C)C)nnc1-c1ccccc1C(=O)O [CBK200093] | 90.1%
11 | COC(=O)c1c(NC(=O)CC2Sc3ccccc3NC2=O)sc(C)c1C (centres unmarked) [CBK264429] | 103%
12 | O=c1[nH]c(CNc2ccccc2)nc2ccccc12 [CBK288038] | 103%
13 | O=C(O)Cc1ccc(NC(=O)c2cccnc2C(=O)O)cc1 [CBK267397] | 97.2%
14 | N#CCCN(Cc1ccco1)C(=O)c1ccc(OCC2CC2)cc1 [CBK304051] | 85%
15 | Cn1cc2c(n1)CC1CCC2N1C(=O)c1ccc(F)c(F)c1 (centres unmarked) [CBK281691] | 92.6%
16 | OCc1cccc(-c2nccnc2NCC(O)COc2ccccc2)c1 (centres unmarked) [CBK036842] | 94.3%
17 | O=C(O)CCc1nc2ccccc2s1 [CBK264071] | 115%
18 | O=C(/C=C/c1ccc2c(c1)OCO2)N1CCN(C(=O)c2ccco2)CC1 [CBK144459] | 95.1%
19 | CO/N=C\c1c(CO)cnc(C)c1O [CBK022776] | 98.4%
20 | NC(=O)COc1cccc(/C=C2/SC(Nc3cccc(C(=O)O)c3)=NC2=O)c1 [CBK265027] | 104%
21 | N#Cc1cccc(CN2C[C@H](O)C[C@H]2c2nc(Cc3ccccc3)no2)c1 [CBK288842] | 87.5%
22 | CCn1cc(S(=O)(=O)Nc2cccc(CCCC(=O)O)c2)cn1 [CBK304717] | 102%

Row | SMILES | viability at 28.5 h, 10 µM
23 | COC(=O)c1ccccc1NC(=O)CCSc1ccc(Cl)cc1 [CBK263817] | 109%
24 | CC1CCN(S(=O)(=O)c2ccc(NC(=O)CN3CCOCC3)cc2)CC1 [CBK268339] | 81.4%
25 | COc1ccc(NC(=O)c2ccc(-c3nnn[nH]3)cc2)cc1OC [CBK295138] | 97.7%
26 | CC(=O)Nc1ccc(N2CC(C(=O)O)CC2=O)cc1 (centres unmarked) [CBK287149] | 87.1%
27 | O=C(CSCc1ccc(Cl)c(Cl)c1)Nc1ncccn1 [CBK269998] | 89.7%
28 | FC(F)(F)c1cccc(CC2CSC(=S)N2)c1 (centres unmarked) [CBK022895] | 92.2%
29 | CC(C)NC(=O)N1CCCC1c1nc(-c2ccc(Cl)cc2)c2ccccn12 (centres unmarked) [CBK046947] | 84%
30 | O=c1n(Cc2ccccc2F)nc2nnc(-c3ccccc3)c(-c3ccccc3)n12 [CBK286179] | 80.9%
31 | CN(C)CCCNC(=O)c1ccnc(/C=N/O)c1 [CBK288434] | 101%
32 | O=C(NC(=S)Nc1ccc(C(=O)O)c(Cl)c1)c1ccc(-c2ccc(Cl)cc2)o1 [CBK265063] | 105%
33 | CC(=O)NCCn1cc2c(n1)[C@H]1CN(C(=O)c3ccccc3)C[C@H]1C2 [CBK282073] | 111%
34 | CC(C)(C)c1ccccc1[S+]([O-])c1cc2c(N3CCNCC3)nccc2s1 (centres unmarked) [CBK200018C] | 103%
35 | Cc1oc2ccc(NS(=O)(=O)c3ccccc3)cc2c1C(=O)O [CBK287071] | 95.3%
36 | Cc1ccc(C(=O)O)cc1S(=O)(=O)NCCCO [CBK267171] | 96.9%
37 | COC(=O)Cn1c(CN2CCN(c3ccccc3F)CC2)nc2c1c(=O)n(C)c(=O)n2C [CBK269444] | 93.1%
38 | Cc1nnc(N/N=C/c2ccc(OC3CCCC3)cc2)nc1O [CBK058025] | 104%
39 | O=C(C1CCCO1)N1CCCC(c2cc3cccnc3[nH]2)C1 (centres unmarked) [CBK284978] | 101%
40 | Cc1cc2cn([C@H]3C[C@@H](O)[C@@H](CO)O3)c(=O)nc2[nH]1 [CBK201302] | 100%
41 | O=C(O)COc1cccc(NC(=O)c2ccccc2)c1 [CBK264602] | 88.3%
42 | Cc1ccccc1-c1noc(C(C)NC(=O)C2(Cn3ccnc3)CC2)n1 (centres unmarked) [CBK306684] | 99.7%
43 | Cc1cccc(CCNC(=O)C2CN(C(=O)C3CCN(C)CC3)C2)c1 [CBK281967] | 98.4%
44 | CN(C)S(=O)(=O)c1ccc(NC(=O)CCC(=O)O)cc1 [CBK267156] | 91.6%

Row | SMILES | viability at 28.5 h, 10 µM
45 | CC(=O)c1ccc(NC(=O)O[C@@H]2CO[C@H]3[C@@H]2OC[C@@H]3NC(=O)C2CCC2)cc1 [CBK289475] | 89.3%
46 | OC1CCn2c1nc1cc(Cl)ccc12 (centres unmarked) [CBK113623] | 79.2%
47 | CCc1cc(Br)ccc1S(=O)(=O)NCCOc1ccccc1 [CBK044882] | 88.4%
48 | O=C(Nc1ccc2oc(-c3cccnc3)nc2c1)c1cccc(-c2cc3ccccc3oc2=O)c1 [CBK268612] | 89.3%
49 | O=C(Nc1cncc(OC2CCNCC2)n1)c1cnc2ccccc2c1 [CBK036377T] | 92.8%
50 | COCCn1c(CO)nnc1[C@H]1C[C@@H](NC(=O)c2ccc(C)cc2F)C1 [CBK307296] | 101%
51 | O=c1n(Cc2ccccn2)c2cccnc2n1Cc1cccs1 [CBK283867] | 90.2%
52 | CCNC(=O)c1cnc(-c2ccc(F)cc2)c(-c2ccncc2)c1 [CBK037477] | 101%
53 | FC(F)(F)c1cccc(OCc2ccc(-c3ccccc3)cc2)n1 [CBK115836] | 92.1%
54 | CCCC[C@H]1CC[C@H](C(=O)Oc2ccc(OC(C)C(=O)O)cc2)CC1 (some centres unmarked) [CBK160854] | 93.8%
55 | CCNS(=O)(=O)c1ccc(NC(=S)Nc2ccc(S(N)(=O)=O)cc2)cc1 [CBK266978] | 99.5%
56 | CNc1nc(NC(C#N)c2ccccc2)ncc1N (centres unmarked) [CBK174783] | 107%
57 | O=C(C1CCCC1)N1CC(n2nc(-c3ccccc3)ccc2=O)C1 [CBK284617] | 93.9%
58 | COc1ccc(C2(C(=O)N3CCN(C)CC3)CC2)cc1 [CBK149837] | 86.3%
59 | CC(C(=O)NCCn1nc(-c2ccco2)ccc1=O)c1ccccc1 (centres unmarked) [CBK283861] | 93.6%
60 | COC(=O)CN1N=C(C(C)(C)C)Cn2c(cc3ccccc32)C1=O [CBK284204] | 95.5%
61 | O=C(CSc1nc2ccccc2s1)OCC(=O)c1cccc([N+](=O)[O-])c1 [CBK262361] | 111%
62 | CCOC(=O)CNS(=O)(=O)c1cccc2cccnc12 [CBK034440] | 115%
63 | CCC1(C)CC(=O)c2cc(NC(=O)N3CCc4n[nH]cc4C3)ccc2O1 (centres unmarked) [CBK306846] | 90.3%
64 | CC(=O)Nc1cccc(NC(=O)N2CCNC(=O)C2)c1 [CBK155863] | 77.7%
65 | Cc1onc(-c2ccccc2)c1CNC(=O)c1cncnc1 [CBK144098] | 90.6%
66 | c1coc(-c2cc(Nc3ccc4[nH]ccc4c3)ncn2)c1 [CBK090862] | 95.5%

Row | SMILES | viability at 28.5 h, 10 µM
67 | CCCCn1nccc1NC(=O)NC(C)c1n[nH]c(C)n1 (centres unmarked) [CBK307486] | 99.4%
68 | Cc1cc(C(=O)N2CCC(c3nn(C)c4ncccc34)CC2)cs1 [CBK284987] | 104%
69 | CS(=O)(=O)N1CCC(C(=O)NCCN2CCOCC2)CC1 [CBK270151] | 100%
70 | CCn1cc(CN2CCN(C(=O)c3csc(C(C)C)c3)CC2)cn1 [CBK282044] | 88.1%
71 | CC(C)CNC(=O)c1cc([C@H]2CC[C@H](CNC(=O)Cn3cccn3)CC2)nc2ccccc12 [CBK285860] | 102%
72 | Cc1ccc(S(=O)(=O)NC(Cc2c[nH]c3ccccc23)C(=O)O)cc1 (centres unmarked) [CBK260966] | 103%
73 | COc1cc(CNc2ccc3[nH]c(=O)[nH]c3c2)cc(Br)c1OCC(=O)NC(C)(C)C [CBK266596] | 57%
74 | Cc1cc(-c2ccc(=O)n(CCNC(=O)c3cccs3)n2)c(C)o1 [CBK284461] | 92.3%
75 | COc1ccc(CNc2cncc(-c3ccc(C(C)C)cc3)n2)cc1 [CBK065514] | 119%
76 | N#Cc1cccc(C(=O)NCC2(N3CCOCC3)CCSC2)c1 (centres unmarked) [CBK306344] | 121%
77 | O=C(O)c1ccc(N2C(=O)CC(N3CCN(Cc4ccc5c(c4)OCO5)CC3)C2=O)cc1 (centres unmarked) [CBK074573] | 87.1%
78 | COc1ccccc1Cc1cccc(C2CCN(C(=O)c3ccc(F)cc3)CC2)n1 [CBK286237] | 108%
79 | Cc1noc(C)c1NC(=O)c1ccnc2ccccc12 [CBK200302] | 96.3%
80 | CC(=O)Nc1ccc(-c2cncc(NC(C)CCCC(C)(C)O)n2)cc1 (centres unmarked) [CBK065894] | 91.1%
81 | Cc1ccc(Cl)cc1NC(=O)c1cc(NC(=O)C2CC=CCC2C(=O)O)ccc1N1CCOCC1 (centres unmarked) [CBK268479] | 99.1%
82 | O=C(O)CSCC(=O)Nc1ccc(Cl)cn1 [CBK057543] | 86.5%
83 | O=C(O)CCc1nc(-c2ccncc2)no1 [CBK288558] | 98.7%
84 | O=[N+]([O-])c1cc(S(=O)(=O)Nc2ccc3[nH]ncc3c2)ccc1Cl [CBK062537] | 84.6%
85 | c1ccc(CN2CCN(c3nccnc3OCc3cccnc3)CC2)cc1 [CBK083129T] | 91.3%
86 | COc1ccc(NC(=O)NC(=O)c2ccc(Cl)cc2)c(OC)c1 [CBK269462] | 93.1%
87 | O=C(NCCCn1ccnc1)c1cnn2c(C(F)(F)F)cc(-c3cccs3)nc12 [CBK263060] | 88.7%

Same assay, conditions: human, hela cells, % viability, bulk resorufin, single well

Row | SMILES | viability at 28.5 h, 10 µM
88 | NS(=O)(=O)c1ccc(-c2ccc(/C=C3\C(=O)NC(=O)N(c4ccc(Br)cc4)C3=O)o2)cc1 [CBK263423] | 93.2%
89 | COc1ccc2c(c1)COC1(CCN(C(=O)N[C@@H](C)c3ccccc3)CC1)O2 [CBK060757] | 106%
